Laboratory results from US7056908B2, “Pharmaceutical compositions and methods for preventing skin tumor formation and causing regression of existing tumors” (priority 1991, dated 2006).

What was measured:
Format in all cases: cell-based, mouse
[1] = tested on: SP-1 cells; test: Epidermal transglutaminase activity in neoplastic keratinocytes; conditions: 24 hours
[2] = tested on: SP-1 cells; test: Morphological differentiation of SP-1 neoplastic keratinocyte cell line; conditions: for morphological changes: 24 hours, 10 nM staurosporine or 160 nM TPA
[3] = tested on: 308 cells; test: Cornified envelope formation in 308 cells; conditions: 1.4 mM Ca2+ medium, 3 days
Experimental: (§1) Cornified Envelope Quantitation. Keratinocytes were analyzed for cornified envelope formation as described (Nagae, S. et al, “Effect of retinoic acid on cornified envelope formation: difference between spontaneous envelope formation in vivo or in vitro and expression of envelope competence,” J. Invest., Dermatol., 89: 51–58, 1987), with minor modifications. Floating cells were harvested by collecting culture medium from each 60 mm dish and combining with two washes using phosphate-buffered saline without Ca^2+ and Ms^+2 (PBS). Cells were pelleted for 5 minutes at 1000 rpm in a benchtop clinical centrifuge and resuspended in 100 μl of lysis buffer (2% sodium dodecyl sulfate (SDS) and 20 mM dithiothreitol in PBS). Attached cells were harvested in 250 μl lysis buffer, combined with the preparation of floating cells, and incubated at 95° for 10 minutes. The non-solubilized, intact cornified envelopes, characteristic of terminally differentiated keratinocytes, were counted using a hemocytometer (Nagae, S. et al, “Effect of retinoic acid on cornified envelope formation: difference between spontaneous envelope formation in vivo or in vitro and expression of envelope competence,” J. Invest. Dermatol., 89: 51–58, 1987).
(§2) Cornified envelope formation was also determined in cultures of staurosporine-treated neoplastic cells. […]

[4] = tested on: primary keratinocytes; test: Epidermal transglutaminase activity in primary keratinocytes; conditions: 9 hours, 1.4 mM Ca2+ medium; for increase in epidermal transglutaminase activity: 8 day old cultures
Experimental: Enzyme Assays. Activity of epidermal transglutaminase was determined by measuring cross-linking of ^3H-putrescine to dimethylcasein (20). Cell lysates were incubated at […] for 10 minutes to inactivate tissue transglutaminase. Ornithine decarboxylase activity of cell lysates was determined by quantifying release of ^14CO2 from ^14C-ornithine (Sako, T. et al, “Partial parallelism and partial blockade by bryostatin 1 of effects of phorbol ester tumor promoters on primary mouse epidermal cells,” Cancer Res., 47: 5445–5450, 1987).
Epidermal transglutaminase activity is elevated in terminally differentiating keratinocytes both in vivo and in vitro. […] Control cultures (0 nM dose) were treated with 0.1% DMSO. Each point is the average of duplicate dishes with the range indicated by error bars.

[5] = tested on: primary keratinocytes; test: Morphological changes and detachment of primary keratinocytes; conditions: for alteration of cell morphology first detectable after: 10 nM staurosporine or 160 nM TPA, 0.05 mM Ca2+ medium
[6] = tested on: 40 kD protein (pp40); test: 32P phosphoprotein analysis in digitonin-permeabilized keratinocytes; conditions: for phosphorylation of band at about 40 kD (pp40): 160 nM TPA or 10 nM staurosporine
Experimental: Cell Permeabilization and ^32P-Labelled Phosphoprotein Analysis. Primary mouse keratinocytes were permeabilized with digitonin to facilitate uptake of ^32P-ATP essentially as described (Erusalimsky, J. D. et al, “Diacylglycerols, and phorbol esters rapidly stimulate the phosphorylation of an Mr=80,000 protein kinase C substrate in permeabilized 3T3 cells,” J. Biol. Chem., 263: 19188–19194, 1988). To first assess the efficacy of permeabilization at different digitonin concentrations, 5–10 μg/ml of the DNA-binding fluorochrome propidium iodide (Jones, K. H. et al, “An improved method to determine cell viability by simultaneous staining with fluorescein diacetate-propidium iodide,” J. Histochem. Cytochem., 33: 77–79, 1985) was added to permeabilization buffer instead of labelled ATP. After incubation at 37° for 1–3 minutes, the buffer was removed and cells washed 3–4 times with PBS prior to fluorescence microscopy. […] Following ^32P-labelling, cells were immediately harvested and lysates subject to SDS/8.5% polyacrylamide gel electrophoresis. Approximate molecular weights were determined using pre-stained protein markers (Amersham, Arlington Heights, Ill.). Dried gels were exposed to Kodak X-Omat AR film at −70° prior to development.
Cells were harvested immediately and proteins separated by SDS/PAGE. Dried gels were exposed to Kodak X-Omat AR film at −70° for 12–24 hours prior to development.

[7] = tested on: SP-1 cells; test: Cornified envelope formation in SP-1 cells; conditions: 1.4 mM Ca2+ medium, 3 days
Experimental: as §1, §2

[8] = tested on: 308 cells; test: Morphological differentiation of 308 neoplastic keratinocyte cell line; conditions: for morphological changes: 24 hours, 10 nM staurosporine or 160 nM TPA
[9] = morphological response to staurosporine
[10] = doses ranging from 1.6 nM to 16 uM

`CN[C@@H]1C[C@H]2O[C@@](C)([C@@H]1OC)n1c3ccccc3c3c4c(c5c6ccccc6n2c5c31)C(=O)NC4` [staurosporine] was tested, and the “maximum induction of epidermal transglutaminase activity” value ([1]; 100 nM, 5 day old SP-1 cells) was 50 fold, the morphological changes [2] was “morphological changes similar to those seen in primary cells” and the “treatment time required for a maximal response” value (“treatment time required” for short) [2, 9] was “at least 48 hours”. For the same molecule, the “induction of cornified envelopes” value ([3]; 10 nM staurosporine) was 60 fold, the “increase in epidermal transglutaminase activity” value ([4]; 10 nM) was 4 fold and the “dose to which induction of transglutaminase activity is restricted” value [4] was 10 nM. The “alteration of cell morphology first detectable after” value [5] was 20 minutes, the “cells detached from the substrate” value ([5]; 10 nM staurosporine, 24 hours) was “nearly all cells” and the “treatment time required” value [5, 9] was 24 h. The overall protein phosphorylation ([6]; 10 nM staurosporine, 3 minutes) was “reduction in overall protein phosphorylation”, the “effect of co-exposure on TPA-mediated phosphorylation of pp40” value ([6]; 160 nM TPA and 10 nM staurosporine) was “blocked the TPA-mediated phosphorylation” and the “phosphorylation of band at about 40 kD (pp40)” value ([6]; 3 minutes) was “not detected”. For the same molecule, the “inducing phosphorylation of pp40” value ([6]; additional doses ranging from 0.1 to 5 nM) was “ineffective”, the “induction of cornified envelopes” value ([7]; 10 nM staurosporine) was 10 fold and the morphological changes [8] was “morphological changes similar to those seen in primary cells”. For the same molecule, the “treatment time required” value [8, 9] was “at least 48 hours”.
`CCCCCCCCCCCCCC(=O)O[C@@H]1[C@@H](C)[C@@]2(O)[C@@H](C=C(CO)C[C@]3(O)C(=O)C(C)=C[C@@H]23)[C@H]2C(C)(C)[C@]12OC(C)=O` [TPA, 12-0-tetradecanoylphorbol-13-acetate, reference compound] was tested, and the “effect on epidermal transglutaminase activity” value ([1]; any dose ranging from 10 pM to 10 μM) was “no detectable effect”, the morphological changes [2] was “does not appreciably alter the appearance” and the inducing morphological differentiation [2, 10] was “ineffective”. For the same molecule, the cornified envelope formation ([3]; 160 nM TPA) was “not induced”, the “increase in epidermal transglutaminase activity” value ([4]; 100 and 1000 nM) was 5 fold and the “alteration of cell morphology first detectable after” value [5] was 20 minutes. The “cells rounded-up and detached from the substrate” value ([5]; 160 nM TPA, after 24 hours) was “about 50%”, the “phosphorylation of band at about 40 kD (pp40)” value ([6]; 3 minutes) was “enhanced phosphorylation” and the cornified envelope formation ([7]; 160 nM TPA) was “not induced”. For the same molecule, the morphological changes [8] was “does not appreciably alter the appearance” and the inducing morphological differentiation [8, 10] was “ineffective”.
